# Experimental data as given in patent US20090111868A1 (priority 2004, published 2009).
# “Also recorded” adds a separate entry of the source. Where two headings read alike, the source gives them in different places.
# Experiments:
# [1] = biological target: BKCa channel (Mus musculus, UniProt Q08460); test: Single channel recordings of BKCa channel, outside-out and inside-out patches (cell-free configuration); format: biochemical; settings: for inhibition of rottlerin channel activation: not shown
# Chain of BKCa channel (Mus musculus, UniProt Q08460) (Q08460 whole entry, the tested form may be a part): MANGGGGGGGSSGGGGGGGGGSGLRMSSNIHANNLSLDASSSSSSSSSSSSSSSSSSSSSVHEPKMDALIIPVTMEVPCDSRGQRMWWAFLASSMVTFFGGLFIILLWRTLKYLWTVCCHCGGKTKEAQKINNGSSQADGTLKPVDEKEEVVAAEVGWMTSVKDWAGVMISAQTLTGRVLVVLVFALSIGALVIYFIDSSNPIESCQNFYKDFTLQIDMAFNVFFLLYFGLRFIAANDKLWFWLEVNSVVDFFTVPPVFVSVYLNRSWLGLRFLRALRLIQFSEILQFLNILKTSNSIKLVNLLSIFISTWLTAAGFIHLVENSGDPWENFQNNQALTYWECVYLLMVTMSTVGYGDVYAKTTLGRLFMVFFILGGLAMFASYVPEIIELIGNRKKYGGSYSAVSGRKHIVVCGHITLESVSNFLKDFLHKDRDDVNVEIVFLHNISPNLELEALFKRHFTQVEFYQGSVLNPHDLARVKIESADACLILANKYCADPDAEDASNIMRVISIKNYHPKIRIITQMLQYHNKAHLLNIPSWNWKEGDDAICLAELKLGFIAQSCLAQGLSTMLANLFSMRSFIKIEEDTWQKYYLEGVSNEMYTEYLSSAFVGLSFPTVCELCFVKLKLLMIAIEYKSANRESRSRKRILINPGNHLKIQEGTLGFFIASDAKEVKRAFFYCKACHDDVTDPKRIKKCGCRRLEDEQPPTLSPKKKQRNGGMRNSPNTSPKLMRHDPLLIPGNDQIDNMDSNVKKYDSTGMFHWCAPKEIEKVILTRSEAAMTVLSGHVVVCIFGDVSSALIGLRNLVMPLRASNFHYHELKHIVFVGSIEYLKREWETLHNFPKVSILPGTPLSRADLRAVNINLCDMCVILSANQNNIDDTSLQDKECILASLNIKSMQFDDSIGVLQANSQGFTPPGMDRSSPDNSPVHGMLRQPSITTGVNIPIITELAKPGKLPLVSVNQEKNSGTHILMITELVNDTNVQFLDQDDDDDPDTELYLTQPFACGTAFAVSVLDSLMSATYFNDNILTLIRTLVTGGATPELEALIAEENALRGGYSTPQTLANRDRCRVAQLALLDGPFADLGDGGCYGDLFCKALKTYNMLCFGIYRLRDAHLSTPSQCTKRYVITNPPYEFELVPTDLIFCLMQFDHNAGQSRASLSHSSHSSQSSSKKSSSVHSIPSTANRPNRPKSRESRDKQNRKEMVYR
# Experimental: Amplitude histograms are shown on the right. […] Ca^2+ was maintained at 0 (virtual; actual<20 nM) through dialysis using patch pipette. Since cellular compartments are excluded from patch and outside-out patch perfused locally with 0 Ca^2+, activation is Ca^2+-independent. […] Amplitude histograms are shown on the right.
# [2] = tested on: Murine femoral arterial rings; test: Phenylephrine induced constriction of femoral arterial rings, wire myograph; format: cell-based
# Experimental: (§1) Current was monitored with ramp protocol; holding potential −60 mV, with ramp from −80 mV to +150 mV over 500 ms. Extracellular application of NS-1619 (10 μM) increased current as previously described (Olesen, et al., Selective activation of Ca(2+)-dependent K+channels by novel benzimidazolone. Eur. J. Pharmacol., 1994. 251(1):53-9). […] Analysis performed using tail analysis with normalization as previously described (Xia, et al., Multiple regulatory sites in large-conductance calcium-activated potassium channels. Nature, 2002. 418(6900):880-4). (B) HEK cells co-expressing α and β1 subunits were studied in whole cell configuration with 5 mM EGTA (intra-pipette). […] (C) Human VSMC were studied in outside-out configuration, utilizing single channel recordings, recorded at +60 mV. […] Identification of the BKCa channel was determined by conductance and inhibition by iberiotoxin and TEA. […] Murine femoral arterial rings from were isolated and placed in a wire myograph. […] Figure representative of 4 similar experiments. Error bars are SEM; * p<0.001.
# [3] = biological target: T1, BKCa channel (mSlo) (Mus musculus, UniProt Q08460); test: Whole cell patch clamp of BKCa channel in stably transfected mSlo HEK293 cells; format: cell-based, murine
# T1 construct: expressed in transfected cells
# T1 sequence (Q08460 whole entry): as the sequence (Q08460 whole entry, the tested form may be a part) above
# Experimental: (A-B) Representative current traces from whole cell patch with 5 mM EGTA in patch pipette. […] Voltage steps are shown at the right of each tracing; note different maximum voltage steps +200 mV (upper) vs. +120 mV (lower). […] Tail currents are in opposite direction due to final voltage step (+60 upper, −60 mV left). (C) G-V curves were constructed for indicated conditions utilizing tail analysis (Xia, et al., Multiple regulatory sites in large-conductance calcium-activated potassium channels. Nature, 2002. 418(6900):880-4). Solid lines were fitted with Boltzmann function (Origin 7.5). […] Representative of>30 similar experiments with rat and murine (pictured) s1o. (D-E) Stable mslo HEK293 cells were studied in whole cell configuration with pipette solution containing 5 mM EGTA (˜0 free Ca^2+).
# as §1
# [4] = not told; cited from earlier work
# [5] = biological target: T2, BKCa channels (Homo sapiens, UniProt Q12791); settings: cited from earlier work
# T2 sequence (Q12791 whole entry): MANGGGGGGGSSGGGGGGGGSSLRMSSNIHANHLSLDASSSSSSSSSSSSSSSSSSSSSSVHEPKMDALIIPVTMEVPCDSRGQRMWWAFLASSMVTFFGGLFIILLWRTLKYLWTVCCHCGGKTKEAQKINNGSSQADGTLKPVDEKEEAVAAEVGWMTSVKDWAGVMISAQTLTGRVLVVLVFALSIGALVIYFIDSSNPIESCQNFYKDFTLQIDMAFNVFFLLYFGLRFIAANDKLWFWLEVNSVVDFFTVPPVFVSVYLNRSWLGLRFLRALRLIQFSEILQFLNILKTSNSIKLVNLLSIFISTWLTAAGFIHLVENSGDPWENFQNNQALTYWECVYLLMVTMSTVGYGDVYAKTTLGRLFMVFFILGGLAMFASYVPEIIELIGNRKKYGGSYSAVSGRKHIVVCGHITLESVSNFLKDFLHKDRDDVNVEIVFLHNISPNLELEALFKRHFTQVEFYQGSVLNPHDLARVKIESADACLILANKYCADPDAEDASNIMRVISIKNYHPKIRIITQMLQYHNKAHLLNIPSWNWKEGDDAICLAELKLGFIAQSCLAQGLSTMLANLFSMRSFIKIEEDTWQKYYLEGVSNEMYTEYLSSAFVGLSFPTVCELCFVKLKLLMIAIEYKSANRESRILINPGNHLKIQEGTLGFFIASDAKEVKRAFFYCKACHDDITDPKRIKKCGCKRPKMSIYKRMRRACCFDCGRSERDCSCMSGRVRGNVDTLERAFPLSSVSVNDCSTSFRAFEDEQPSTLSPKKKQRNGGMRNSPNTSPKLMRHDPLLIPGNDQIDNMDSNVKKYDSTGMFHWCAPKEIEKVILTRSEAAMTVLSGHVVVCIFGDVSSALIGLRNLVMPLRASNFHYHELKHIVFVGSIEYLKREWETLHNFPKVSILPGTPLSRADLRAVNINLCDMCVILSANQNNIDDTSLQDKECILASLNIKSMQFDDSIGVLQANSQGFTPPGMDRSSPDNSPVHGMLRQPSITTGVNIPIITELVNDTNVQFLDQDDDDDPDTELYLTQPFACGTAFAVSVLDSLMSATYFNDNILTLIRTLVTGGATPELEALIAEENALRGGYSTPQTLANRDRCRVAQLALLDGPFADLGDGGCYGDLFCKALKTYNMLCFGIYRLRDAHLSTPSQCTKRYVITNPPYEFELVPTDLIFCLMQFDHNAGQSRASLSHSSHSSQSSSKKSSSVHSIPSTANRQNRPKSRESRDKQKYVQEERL
# [6] = biological target: BKCa channel α and β subunits (Homo sapiens, UniProt Q12791); settings: α and β subunits co-expressed; cited from earlier work
# Chain of BKCa channel α and β subunits (Q12791 whole entry): as above
# Chain of BKCa channel α and β subunits (Q16558 whole entry partner): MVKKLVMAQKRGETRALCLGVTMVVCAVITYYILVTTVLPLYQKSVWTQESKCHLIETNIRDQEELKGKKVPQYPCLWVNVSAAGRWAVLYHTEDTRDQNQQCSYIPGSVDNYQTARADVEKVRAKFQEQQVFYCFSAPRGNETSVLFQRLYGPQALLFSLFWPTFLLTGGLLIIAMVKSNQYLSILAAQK
# [7] = biological target: T3, BKCa channel (Sus scrofa, UniProt O18866); settings: cited from earlier work
# T3 construct: host or cells: porcine coronary artery cells (endogenous)
# T3 sequence (O18866 whole entry): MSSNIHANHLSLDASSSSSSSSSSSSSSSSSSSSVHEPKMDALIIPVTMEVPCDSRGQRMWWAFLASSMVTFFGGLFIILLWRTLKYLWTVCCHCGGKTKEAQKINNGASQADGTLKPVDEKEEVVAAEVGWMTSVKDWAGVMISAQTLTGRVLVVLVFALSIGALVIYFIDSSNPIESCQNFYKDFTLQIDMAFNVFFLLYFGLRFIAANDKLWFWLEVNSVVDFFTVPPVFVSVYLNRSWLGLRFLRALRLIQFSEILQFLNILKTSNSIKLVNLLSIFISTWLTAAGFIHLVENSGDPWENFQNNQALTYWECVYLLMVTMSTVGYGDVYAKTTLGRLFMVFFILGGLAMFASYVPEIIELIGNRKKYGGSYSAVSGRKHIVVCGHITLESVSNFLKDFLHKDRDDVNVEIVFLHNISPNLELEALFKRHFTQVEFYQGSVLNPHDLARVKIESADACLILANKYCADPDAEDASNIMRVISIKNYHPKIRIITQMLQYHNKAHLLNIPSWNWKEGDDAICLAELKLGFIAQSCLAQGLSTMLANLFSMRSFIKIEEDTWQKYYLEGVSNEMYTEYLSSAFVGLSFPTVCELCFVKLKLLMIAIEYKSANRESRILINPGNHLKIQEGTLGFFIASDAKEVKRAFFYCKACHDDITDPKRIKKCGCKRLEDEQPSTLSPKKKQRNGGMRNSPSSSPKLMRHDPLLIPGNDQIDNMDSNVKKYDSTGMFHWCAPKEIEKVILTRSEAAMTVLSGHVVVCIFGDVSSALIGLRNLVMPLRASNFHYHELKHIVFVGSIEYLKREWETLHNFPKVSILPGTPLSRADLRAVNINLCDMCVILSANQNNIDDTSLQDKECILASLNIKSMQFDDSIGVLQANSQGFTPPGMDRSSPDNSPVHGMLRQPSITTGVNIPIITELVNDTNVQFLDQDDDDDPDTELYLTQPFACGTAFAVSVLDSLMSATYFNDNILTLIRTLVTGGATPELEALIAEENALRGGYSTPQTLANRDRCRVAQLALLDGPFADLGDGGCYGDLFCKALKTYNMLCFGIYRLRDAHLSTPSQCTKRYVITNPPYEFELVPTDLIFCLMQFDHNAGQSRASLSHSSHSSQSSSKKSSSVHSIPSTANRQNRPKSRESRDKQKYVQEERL
# [8] = tested on: Ca^2+ sparks (RyR); settings: cited from earlier work
# [9] = tested on: porcine coronary myocytes; settings: 30 μM; through ryanodine receptor sensitive storage sites; cited from earlier work
# [10] = tested on: Ca^2+ channel; settings: cited from earlier work
# [11] = tested on: hypertensive rat model; settings: hypertensive rat model compared to controls; cited from earlier work
# [12] = tested on: Cl^− channel; settings: cited from earlier work
# [13] = biological target: maxi-K potassium channels (Homo sapiens, UniProt Q12791); settings: cited from earlier work
# Chain of maxi-K potassium channels (Q12791 whole entry): as the sequence (Q12791 whole entry) above
# [14] = tested on: rat stroke models; settings: cited from earlier work
# [15] = biological target: maxi-K channels (Homo sapiens, UniProt Q12791); settings: applied to the cytoplasmic side; cited from earlier work
# Chain of maxi-K channels (Q12791 whole entry): as above
# [16] = tested on: 3T3-L1 adipocytes; settings: read-out: IC50, inhibition of insulin-induced glucose uptake; cited from earlier work
# [17] = biological target: casein kinase II (Homo sapiens, UniProt P68400); settings: read-out: IC50 for casein kinase II; in vitro; cited from earlier work
# [18] = biological target: T4, PKCδ (Homo sapiens, UniProt Q05655); settings: more recent data; cited from earlier work
# T4 sequence (Q05655 whole entry): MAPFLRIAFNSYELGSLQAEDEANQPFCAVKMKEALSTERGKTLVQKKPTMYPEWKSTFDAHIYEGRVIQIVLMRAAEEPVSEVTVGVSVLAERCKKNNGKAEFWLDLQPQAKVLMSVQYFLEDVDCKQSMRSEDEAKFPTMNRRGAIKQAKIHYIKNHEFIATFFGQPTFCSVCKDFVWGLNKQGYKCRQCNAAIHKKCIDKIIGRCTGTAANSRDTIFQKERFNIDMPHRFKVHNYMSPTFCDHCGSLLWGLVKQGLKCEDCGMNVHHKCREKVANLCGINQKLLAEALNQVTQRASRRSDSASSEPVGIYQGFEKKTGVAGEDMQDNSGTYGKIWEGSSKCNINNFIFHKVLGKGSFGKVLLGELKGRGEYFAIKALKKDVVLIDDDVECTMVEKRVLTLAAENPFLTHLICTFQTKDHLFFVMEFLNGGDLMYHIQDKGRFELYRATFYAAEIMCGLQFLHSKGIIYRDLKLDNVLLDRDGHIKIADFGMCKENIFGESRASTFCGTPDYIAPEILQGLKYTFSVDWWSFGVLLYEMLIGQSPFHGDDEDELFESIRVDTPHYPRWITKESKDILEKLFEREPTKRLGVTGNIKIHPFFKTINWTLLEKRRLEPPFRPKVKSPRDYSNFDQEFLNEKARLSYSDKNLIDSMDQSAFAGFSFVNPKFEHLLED
# [19] = biological target: PKCα (Homo sapiens, UniProt P17252); settings: rottlerin 20 μM; 0.1 mM (or 0.01 mM) ATP; phosphatidylserine; histone H1 or myelin basic protein substrate; cited from earlier work
# [20] = tested on: rats; settings: purified rottlerin 10-20 mg/kg/day × 6 days; cited from earlier work
# [21] = tested on: other PKC isozymes; settings: in vitro; cited from earlier work
# [22] = biological target: T4, PKCδ; settings: read-out: IC50 for PKCδ; in vitro; cited from earlier work
# [23] = biological target: T5, BKCa channel mSlo and β1 subunit (Mus musculus, UniProt Q08460); test: Whole cell recording in HEK cells co-expressing α and β1 subunits; format: cell-based, murine
# T5 construct: expressed in transfected cells; host or cells: HEK293
# T5 sequence (Q08460 whole entry): as the sequence (Q08460 whole entry, the tested form may be a part) above
# T5 sequence (Q16558 whole entry partner): as the sequence (Q16558 whole entry partner) above
# Experimental: as §1
# [24] = tested on: mitochondria in intact cells; settings: cited from earlier work
# [25] = biological target: T4, PKCδ; settings: rottlerin 20 μM; 0.1 mM (or 0.01 mM) ATP; phosphatidylserine; histone H1 or myelin basic protein substrate; cited from earlier work
# [26] = biological target: T2, BKCa channels; test: Single channel recordings (outside-out) in human VSMC; format: cell-based; parameters: endogenous in cells; host or cells: human vascular smooth muscle cells (VSMC) grown in vitro; settings: recorded at +60 mV
# Experimental: as §1
# [27] = tested on: guinea pigs; settings: purified rottlerin 10-20 mg/kg/day × 6 days; cited from earlier work
# [28] = biological target: T6, glutamate-aspartate transporter (GLAST) (Homo sapiens, UniProt P43003); settings: cited from earlier work
# T6 construct: host or cells: astrocytes (from the cited title only)
# [29] = tested on: canine subarachnoid hemorrhage model; settings: rottlerin 5 μM injected into the cistema magna; cited from earlier work
# [30] = biological target: PKA (Homo sapiens, UniProt P17612); settings: read-out: IC50 for PKA; in vitro; cited from earlier work
molecule,measurement,setting,value
"CC[N+](CC)(CC)CC [TEA, reference compound]",inhibition of rottlerin channel activation,[1],can be inhibited
same,inhibition of the rottlerin mediated effect on contraction,[2]; TEA,inhibited
same,inhibition of rottlerin induced BKCa activation,[3]; TEA 5 mM,reversibly inhibited
dehydrosoyasaponin-I [DHS-I],membrane permeability,[4],poor
same,BKCa channel activation,[5],activate BKCa channels
same,channel activity,[6],increases channel activity
O=C(Nc1cccc(C(F)(F)F)c1)Nc1cc(Cl)ccc1O [NS1608],effect at higher concentrations (bell shaped),[7]; 50 μM,inhibitory effect
same,concentration of maximum BKCa channel activation,[7]; porcine coronary artery cells,5 to 10 µM
same,"minimum effective concentration, BKCa channel activation",[7]; porcine coronary artery cells,0.5 µM
C[C@@H]1O[C@@H](O[C@H]2[C@H](O[C@H]3[C@H](O[C@H]4CC[C@@]5(C)[C@@H](CC[C@]6(C)[C@@H]5CC=C5[C@@H]7CC(C)(C)C[C@@H](O)[C@]7(C)CC[C@]56C)[C@@]4(C)CO)O[C@H](C(=O)O)[C@@H](O)[C@@H]3O)O[C@H](CO)[C@H](O)[C@@H]2O)[C@H](O)[C@H](O)[C@H]1O [soyasaponin I],BKCa channel activation,[5],activate BKCa channels
"iberiotoxin: inhibitor used to identify the BKCa channel (QFTDVDCSVSKECWSVCKDLFGVDRGKCMGKKCRCYQ; UniProt P24663 1-37, looked up) [reference compound]",inhibition of rottlerin channel activation,[1],can be inhibited
Ryanodine,reduction of dilation to forskolin,[8],80%
O=c1[nH]c2cc(C(F)(F)F)ccc2n1-c1cc(C(F)(F)F)ccc1O [NS-1619],intracellular Ca2+ concentration,[9],increase intracellular Ca^2+ concentration
same,Ca2+ channel,[10],inhibits
same,efficacy in mediating vascular relaxation,[11],diminished
same,Cl- channel,[12],inhibits
same,peak K+ current,[3],activated
COc1ccc(Cl)cc1[C@]1(F)C(=O)Nc2cc(C(F)(F)F)ccc21 [BMS-204352],effect on current,[13]; 50 nM intracellular Ca2+,almost no effect
same,effect on current,[13]; higher intracellular Ca2+ concentrations,progressively greater increases in current
same,brain infarct size,[14],reduction in brain infarct size
CC1(C)C[C@@H](O)[C@]2(C)CC[C@]3(C)C(=CC[C@@H]4[C@@]5(C)CC[C@H](O[C@@H]6O[C@H](C(=O)O)[C@@H](O)[C@H](O)[C@H]6O[C@@H]6O[C@H](CO)[C@H](O)[C@H](O)[C@H]6O)[C@](C)(CO)[C@@H]5CC[C@]43C)[C@@H]2C1 [soyasaponin III],BKCa channel activation,[5],activate BKCa channels
C=C[C@]1(C)C=C2CC[C@@]3(O)C(C)(C)CC[C@H](O)[C@]3(C)C2CC1 (stereo partly shown) [Maxikdiol],concentration with significant effect on channel,[15],3 to 10 µM
same,threshold concentration for channel activation,[15],1 µM
same,membrane permeability,[4],limited
"CC(=O)c1c(O)c(C)c(O)c(Cc2c(O)c3c(c(C(=O)/C=C/c4ccccc4)c2O)OC(C)(C)C=C3)c1O [rottlerin, 5,7-dihydroxy-2,2-dimethyl-6-(2,4,6-trihydroxy-3-methyl-5-acetylbenzyl)-8-cinnamoyl-1,2-chromene]","single channel activity, outside-out patch","[1]; rottlerin 0.5 μM local perfusion to extracellular side, 0 Ca2+ (actual <20 nM)",activation of BKCa
same,"single channel activity, inside-out patch","[1]; rottlerin 0.5 μM local perfusion, 0 Ca2+",activation of BKCa
same,channel conductance,"[1]; rottlerin 0.5 μM, amplitude histograms",does not significantly change
same,IC50,[16],10 µM
same,IC50,[17],30 to 100 µM
same,blocking PKCδ activity in vitro,[18],ineffective
same,effect on PKCα activity,[19],virtually no effect
same,fertility rate,[20],reduce the fertility rate
same,IC50,[21],30 to 100 µM
same,IC50,[22],3 to 6 µM
same,effect on phenylephrine mediated contraction,[2]; rottlerin 1 μM,no significant effect
same,reduction of phenylephrine mediated contraction,[2]; rottlerin 4 μM,> 50%
same,PE induced constriction of the vessel,"[2]; rottlerin (0.5 μM), p<0.001, representative of 4 experiments",significantly inhibited
same,channel activity,[23]; HEK293 cells expressing both mSlo and β1 subunit,activated the channel
same,I-V curve,"[23]; rottlerin 0.5 μM, whole cell, 5 mM EGTA intra-pipette",significantly shifted the I-V curve to the left
same,uncoupling of mitochondria,[24]; 10 μM,can uncouple mitochondria
same,ATP levels,[24]; PKC independent,reduce ATP levels
same,effect on PKCδ activity,[25],virtually no effect
same,Po,[26]; rottlerin (0.5 μM) by local perfusion,significantly increased
same,open dwell time,[26]; rottlerin (0.5 βM) by local perfusion,significantly increased
same,fertility rate,[27],reduce the fertility rate
same,capacity of GLAST glutamate transporter,[28],decrease the capacity
same,cerebral vasospasm,[29],inhibited the initial phase of cerebral vasospasm
same,toxic effects,[29],No toxic effects
same,BKCa channel activity on extracellular exposure,[3]; 0.5 μM via local perfusion after 25 min intracellular dialysis,significantly increased
same,BKCa channel activity/current on intracellular dialysis,"[3]; 20 μM rottlerin in patch pipette, 5 mM EGTA, over 25 min",minimal effect; also recorded: only a relatively small effect
same,tail currents (slowing of deactivation),"[3]; after exposure to rottlerin (FIG. 4: 0.5 μM extracellular, 5 mM EGTA in pipette)",significantly prolonged; also recorded: markedly prolonged
same,BKCa channel activation on local perfusion,"[3]; extracellular, pipette 5 mM EGTA (~0 free Ca2+)",activated channel
same,current after NS-1619 administration,"[3]; rottlerin 0.5 μM added after NS-1619 (10 μM), 0 Ca2+",incrementally increased current
same,BKCa channel activity,"[3]; rottlerin ≦100 nM, non-phosphorylated conditions, non-Ca2+ dependent, reversible",dramatically increased
same,IC50,[30],30 to 100 µM
